Laboratory results taken from patent US20240383856A1 (Zedira GmbH, priority 2021, published 2024).
Where two headings read alike, the source gives them in different places.

Columns and labels:
[1] = biological target: T1, recombinant human transglutaminase 2 (Homo sapiens, UniProt P21980); experiment: Transglutaminase assay (DCC-assay): incorporation of dansylcadaverine into dimethylcasein; assay type: biochemical
T1 construct: purchased Zedira T022
T1 sequence (P21980 1-687): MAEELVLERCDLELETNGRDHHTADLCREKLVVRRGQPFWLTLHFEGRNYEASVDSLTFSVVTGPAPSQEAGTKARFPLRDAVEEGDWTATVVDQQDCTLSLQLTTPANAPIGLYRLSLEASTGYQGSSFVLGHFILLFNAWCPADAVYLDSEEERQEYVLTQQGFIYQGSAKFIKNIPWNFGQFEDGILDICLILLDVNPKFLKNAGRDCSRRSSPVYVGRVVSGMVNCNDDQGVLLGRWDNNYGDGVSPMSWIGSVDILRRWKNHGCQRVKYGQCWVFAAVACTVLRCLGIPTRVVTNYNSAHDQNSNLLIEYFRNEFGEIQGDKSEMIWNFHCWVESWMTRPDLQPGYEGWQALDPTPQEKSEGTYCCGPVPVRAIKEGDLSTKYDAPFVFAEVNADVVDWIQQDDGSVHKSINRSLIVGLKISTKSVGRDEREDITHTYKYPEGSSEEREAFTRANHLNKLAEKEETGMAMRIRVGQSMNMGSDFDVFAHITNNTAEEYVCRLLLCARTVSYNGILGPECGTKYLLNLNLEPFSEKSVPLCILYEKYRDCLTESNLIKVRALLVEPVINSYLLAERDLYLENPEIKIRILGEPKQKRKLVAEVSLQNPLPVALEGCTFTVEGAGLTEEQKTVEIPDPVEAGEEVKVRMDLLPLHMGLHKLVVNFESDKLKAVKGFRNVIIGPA
Method in brief: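 IC50 is the inhibitor level that blocks 50% of initial activity. Activity is the fluorescence slope (λex 330, λem 500 nm) between 20 and 30 min of a 37 °C run, relative to a 2% DMSO control. The enzyme is recombinant human tissue transglutaminase, 10 nM final, tested against a 1:2 inhibitor dilution series in a pH 8.0 mix with 10 mM CaCl2, 10 mM glutathione, 16.7 µM dansylcadaverine and 4 µM N,N-dimethylcasein.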

[2] = Caco-2 permeability assay (CacoReady kit); assay type: in vitro ADME; details: human
Method in brief: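 Caco-2 monolayer barrier, commercial ready-to-use kit, manufacturer protocol. Read-out: Papp.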

[3] = Multiple-dosing PK study, tissue concentration in lung and liver; assay type: in vivo; details: mice, 200 mg/kg oral twice daily, after the eighth dose (four days)
Protocol: Additionally, in a multiple-dosing PK study, II-3 was orally administered to 3 mice with 200 mg/kg doses (dose volume 10 mL/kg) twice daily (12 h intervals). After the animals were sacrificed, the liver and lung were removed. The homogenates of the respective tissues were analyzed by LC-MS to determine the concentration of the compound. The tissue concentration in lung and liver after the eighth dose (four days) was 6,800 and 10,400 ng/g, respectively, showing that the compound reaches the tissue at pharmacological active concentration.

With `CNC(=O)C(=O)CC[C@H](NC(=O)c1oc2ccccc2c1C)C(=O)Nc1cccn(CC(=O)NC2C3CC4CC(C3)CC2C4)c1=O` (stereo partly drawn) [II-3, (S)-N1-(1-(2-(2-adamantylamino)-2-oxoethyl)-2-oxo-1,2-dihydropyridin-3-yl)-N6-methyl-2-(3-methylbenzofuran-2-carboxamido)-5-oxohexanediamide] the IC90 ([1]; TG2, table with the PK study) was 180 nM, the IC50 ([1]; TG2, table with the PK study, read-out: IC50) was 23 nM and the IC50 ([1]; recombinant human TG2 10 nM, dansylcadaverine incorporation into dimethylcasein, read-out: IC50 TG2) was less than 40 nM. For the same compound, the Papp ([2]; Caco-2, Caco-2, read-out: Papp [cm/s] ×10^−6) was 8.4 ×10⁻⁶ cm/s, the Papp ([2]; Caco-2, Caco-2 barrier, CacoReady kit, above 1×10^−6 cm/s classified as permeable) was 1 to 10 ×10⁻⁶ cm/s and the “tissue concentration in liver” value [3] was 10,400 ng/g. The “tissue concentration in lung” value [3] was 6,800 ng/g.
